Results published in patent publication US7144876B2, “3,5-Disubstituted-[1,2,4]-oxadiazoles and analogs as activators of caspases and inducers of apoptosis and the use thereof” (Cytovia, Inc., priority 2002, dated 2006).

Assays:
[1] = tested on: T-47D; test: Caspase cascade activation assay (N-(Ac-DEVD)-N'-ethoxycarbonyl-R110 fluorogenic substrate) in solid tumor cells; format: cell-based, Human; details: T-47D cells, 48 h incubation; for EC50: Homo sapiens, T47D, sigmoidal dose-response, read-out: Caspase potency EC50; for Caspase activity (Ratio): ratio of net RFU of test compound to that of control samples
Experimental: Human breast cancer cell lines T-47D and ZR-75-1 were grown according to media component mixtures designated by American Type Culture Collection+10% FCS (Invitrogen Corporation), in a 5% CO2-95% humidity incubator at 37° C. T-47D and ZR-75-1 cells were maintained at a cell density between 50 and 80% confluency at a cell density of 0.1 to 0.6×10^6 cells/mL. Cells were harvested at 600×g and resuspended at 0.65×10^6 cells/mL into appropriate media+10% FCS. An aliquot of 45 μl of cells was added to a well of a 96-well microtiter plate containing 2.5 μl of a 10% DMSO in RPMI-1640 media solution containing 0.16 to 100 μM of 3-(3-amino-4-chloro-phenyl)-5-(3-chlorothiophen-2-yl)-[1,2,4]-oxadiazole or other test compound (0.016 to 10 μM final). An aliquot of 22.5 μL of cells was added to a well of a 384-well microtiter plate containing 2.5 μl of a 10% DMSO in RPMI-1640 media solution without test compound as the control sample. The samples were mixed by agitation and then incubated at 37° C. for 48 h in a 5% CO2-95% humidity incubator. After incubation, the samples were removed from the incubator and 25 μL of a solution containing 14 μM of N-(Ac-DEVD)-N′-ethoxycarbonyl-R110 (SEQ ID No.:1) fluorogenic substrate (Maxim, Inc.; WO99/18856), 20% sucrose (Sigma), 20 mM DTT (Sigma), 200 mM NaCl (Sigma), 40 mM Na PIPES buffer pH 7.2 (Sigma), and 500 μg/mL lysolecithin (Calbiochem) was added. The samples were mixed by agitation and incubated at room temperature. Using a fluorescent plate reader (Model SpectraMax Gemini, Molecular Devices), an initial reading (T=0) was made approximately 1–2 min after addition of the substrate solution, employing excitation at 485 nm and emission at 530 nm, to determine the background fluorescence of the control sample. After the 3 h incubation, the samples were read for fluorescence as above (T=3 h).
The Relative Fluorescence Unit values (RFU) were used to calculate the sample readings as follows: RFU(T=3h)−Control RFU(T=0)=Net RFU(T=3h)
The activity of caspase cascade activation was determined by the ratio of the net RFU value for 3-(3-amino-4-chloro-phenyl)-5-(3-chlorothiophen-2-yl)-[1,2,4]-oxadiazole or other test compound to that of control samples. The EC50 (nM) was determined by a sigmoidal dose-response calculation (Prism 2.0, GraphPad Software Inc.).

[2] = tested on: T-47D; test: Inhibition of cell proliferation (GI50), CellTiter 96 AQueous One Solution; format: cell-based; details: Homo sapiens, T47D; T-47D cells, 48 h incubation; dose for 50% inhibition of cell proliferation
Experimental: T-47D and SKBr-3 cells were grown and harvested as in Example 72. An aliquot of 90 μL of cells (2.2×10^4 cells/mL) was added to a well of a 96-well microtiter plate containing 10 μl of a 10% DMSO in RPMI-1640 media solution containing 1 nM to […] of 3-(3-amino-4-chloro-phenyl)-5-(3-chlorothiophen-2-yl)-[1,2,4]-oxadiazole (0.1 nM to 10 μM final). An aliquot of 90 μL of cells was added to a well of a 96-well microtiter plate containing 10 μL of a 10% DMSO in RPMI-1640 media solution without compound as the control sample for maximal cell proliferation (AMax). The samples were mixed by agitation and then incubated at 37° C. for 48 h in a 5% CO2-95% humidity incubator. After incubation, the samples were removed from the incubator and 20 μL of CellTiter 96 AQUEOUS One Solution Cell Proliferation™ reagent (Promega) was added. The samples were mixed by agitation and incubated at 37° C. for 2–4 h in a 5% CO2-95% humidity incubator. Using an absorbance plate reader (Model 1420 Wallac Instruments), an initial reading (T=0) was made approximately 1–2 min after addition of the solution, employing absorbance at 490 nm. This determines the possible background absorbance of the test compounds. No absorbance for 3-(3-amino-4-chloro-phenyl)-5-(3-chlorothiophen-2-yl)-[1,2,4]-oxadiazole was found at 490 nm. After the 2–4 h incubation, the samples were read for absorbance as above (ATest).
Baseline for GI50 (dose for 50% inhibition of cell proliferation) of initial cell numbers were determined by adding an aliquot of 90 μL of cells or 90 μL of media, respectively, to wells of a 96-well microtiter plate containing 10 μL of a 10% DMSO in RPMI-1640 media solution. The samples were mixed by agitation and then incubated at 37° C. for 0.5 h in a 5% CO2-95% humidity incubator. After incubation, the samples were removed from the incubator and 20 μL of CellTiter 96 AQUEOUS One Solution Cell Proliferation™ reagent (Promega) was added. The samples were mixed by agitation and incubated at 37° C. for 2–4 h in a 5% CO2-95% humidity incubator. Absorbance was read as above, (AStart) defining absorbance for initial cell number used as baseline in GI50 determinations.
Calculation: GI50 (dose for 50% inhibition of cell proliferation) is the concentration where [(ATest−AStart)/(AMax−Astart)]=0.5.

[3] = tested on: MX1; test: as above; format: cell-based; details: Homo sapiens; MX1 cells, 48 h incubation; dose for 50% inhibition of cell proliferation

SMILES	EC50 [1] [nM]	GI50 [2] [nM]	Caspase activity (Ratio) [1]	GI50 [3] [nM]
Clc1ccsc1-c1nc(N2CCCCC2)no1 [Example 18, 5-(3-Chlorothiophen-2-yl)-3-(1-piperidinyl)-[1,2,4]-oxadiazole]	5040		2.8	
CN(C)c1cc(-c2noc(-c3occc3Br)n2)ccc1Cl [Example 4, 5-(3-Bromofuran-2-yl)-3-(3-dimethylamino-4-chloro-phenyl)-[1,2,4]-oxadiazole]	1850	415	11.9	210
Cc1cccnc1-c1noc(-c2occc2Br)n1 [Example 57, 5-(3-Bromofuran-2-yl)-3-(3-methyl-pyridin-2-yl)-[1,2,4]oxadiazole]	846		6.4	
CC1CCN(c2noc(-c3sccc3Cl)n2)CC1 [Example 22, 5-(3-Chlorothiophen-2-yl)-3-(4-methylpiperidin-1-yl)-[1,2,4]oxadiazole]	3320		5.4	
Cc1cc(Cl)ccc1-c1noc(-c2occc2Br)n1 [Example 49, 5-(3-Bromofuran-2-yl)-3-(4-chloro-2-methyl-phenyl)-[1,2,4]oxadiazole]	1010		11.9	
Cc1cccnc1-c1noc(-c2sccc2Cl)n1 [Example 47, 5-(3-Chlorothiophen-2-yl)-3-(3-methyl-pyridin-2-yl)-[1,2,4]oxadiazole]	2440		4.5	
Cc1cc(Cl)cnc1-c1noc(-c2occc2Br)n1 [Example 50, 5-(3-Bromofuran-2-yl)-3-(5-chloro-3-methyl-pyridin-2-yl)-[1,2,4]oxadiazole]	797		5.9	

Continued, in another order:

EC50 [1] [nM]	GI50 [2] [nM]	SMILES	Caspase activity (Ratio) [1]	GI50 [3] [nM]
818		Cc1cc(Cl)ccc1-c1noc(-c2sccc2Cl)n1 [Example 43, 3-(4-Chloro-2-methyl-phenyl)-5-(3-chlorothiophen-2-yl)-[1,2,4]oxadiazole]	7.9	
3270	514	Fc1cc(-c2noc(-c3sccc3Cl)n2)ccc1Cl [Example 9, 5-(3-Chlorothiophen-2-yl)-3-(4-chloro-3-fluoro-phenyl)-[1,2,4]-oxadiazole]	9.0	899
3750		O=[N+]([O-])c1cc(-c2noc(-c3sccc3Cl)n2)ccc1Cl [Example 10, 5-(3-Chlorothiophen-2-yl)-3-(4-chloro-3-nitro-phenyl)-[1,2,4]-oxadiazole]	9.9	
1520	360	CN(C)c1cc(-c2noc(-c3sccc3Cl)n2)ccc1Cl [Example 2, 5-(3-Chlorothiophen-2-yl)-3-(3-dimethylamino-4-chloro-phenyl)-[1,2,4]-oxadiazole]	15.1	5000
4000		N#Cc1cc(-c2noc(-c3sccc3Cl)n2)ccc1Cl [Example 7, 5-(3-Chlorothiophen-2-yl)-3-(4-chloro-3-cyano-phenyl)-[1,2,4]-oxadiazole]	3.4	
5550		Clc1ccc(C=Cc2noc(-c3sccc3Cl)n2)cc1 [Example 13, 3-[2-(4-Chloro-phenyl)-vinyl]-5-(3-chlorothiophen-2-yl)-[1,2,4]-oxadiazole]	4.4	
1980	894	Nc1cc(-c2noc(-c3sccc3Cl)n2)ccc1Cl [Example 1, 3-(3-Amino-4-chloro-phenyl)-5-(3-chlorothiophen-2-yl)-[1,2,4]-oxadiazole]	11.9	7000
